# US8614324B2, “Filamin A binding anti-inflammatory and analgesic” (priority 2008, dated 2013)
# Experiments:
# [1] = target: Bn-VAKGL pentapeptide of filamin A (FLNA) (Homo sapiens, UniProt P21333); test: FITC-NLX-based FLNA screening assay (FLNA peptide binding assay); settings: 10 nM FITC-NLX
# Description: The final assay volume is 100 μl.
# Compounds are tested in triplicate or quadruplicate.
# [2] = target: T1, mu opiate receptor (MOR) (Rattus norvegicus, UniProt P33535); test: MOR agonist activity, [35S]GTPγS binding assay using striatal membranes; assay type: biochemical; design: MOR agonist activity, [35S]GTPγS binding to Gαo: reference not given here
# T1 construct: from tissue; host or cells: striatal membrane preparation (rat striatum)
# Description: To assess the mu opiate receptor (MOR) agonist activity of positive compounds from the FLNA screening, compounds were tested in a [^35S]GTPγS binding assay using striatal membranes.
# Striatal tissue was homogenized in 10 volumes of ice cold 25 mM HEPES buffer, pH 7.4, which contained 1 mM EGTA, 100 mM sucrose, 50 μg/ml leupeptin, 0.04 mM PMSF, 2 μg/ml soybean trypsin inhibitor and 0.2% 2-mercaptoethanol. The homogenates were centrifuged at 800×g for 5 minutes and the supernatants were centrifuged at 49,000×g for 20 minutes. The resulting pellets were suspended in 10 volume of reaction buffer, which contained 25 mM HEPES, pH 7.5, 100 mM NaCl, 50 μg/ml leupeptin, 2 μg/ml soybean trypsin inhibitor, 0.04 mM PMSF and 0.02% […].
# The resultant striatal membrane preparation (200 μg) was admixed and maintained (incubated) at 30° C. for 5 minutes in reaction buffer as above that additionally contained 1 mM MgCl2 and 0.5 nM [^35S]GTPγS (0.1 μCi/assay, PerkinElmer Life and Analytical Sciences) in a total volume of 250 μl and continued for 5 minutes in the absence or presence of 0.1-10 μM of an assayed compound of interest. The reaction was terminated by dilution with 750 μl of ice-cold reaction buffer that contained 20 mM MgCl2 and 1 mM EGTA and immediate centrifugation at 16,000×g for 5 minutes.
# The resulting pellet was solubilized by sonicating for 10 seconds in 0.5 ml of immunoprecipitation buffer containing 0.5% digitonin, 0.2% sodium cholate and 0.5% NP-40. Normal rabbit serum (1 μl) was added to 1 ml of lysate and incubated at 25° C. for 30 minutes. Nonspecific immune complexes were removed by incubation with 25 μl of protein A/G-conjugated agarose beads at 25° C. for 30 minutes followed by centrifugation at 5,000×g at 4° C. for 5 minutes. The supernatant was divided and separately incubated at 25° C. for 30 minutes with antibodies raised against Gαo proteins (1:1,000 dilutions).
# The immunocomplexes so formed were collected by incubation at 25° C. for 30 minutes with 40 μl of agarose-conjugated protein A/G beads and centrifugation at 5,000×g at 4° C. for 5 minutes. The pellet was washed and suspended in buffer containing 50 mM Tris-HCl, pH 8.0, and 1% NP-40. The radioactivity in the suspension was determined by liquid scintillation spectrometry. […] DAMGO (H-Tyr-D-Ala-Gly-N-MePhe-Gly-OH; 1 or 10 μM) was used as a positive control.
# [3] = tested on: TNF-α release from primary human astrocytes; test: LPS-induced cytokine release from primary human astrocytes, TNF-α; assay type: cell-based
# Description: (§1) The following study was undertaken to investigate whether contemplated compounds and (+)NLX affect LPS-induced release of the pro-inflammatory cytokine (IL-1β, IL-6 and TNF-α) release from primary human astrocytes. […]
# (§2) Primary astrocytes culture was prepared according to the provider's instructions (Lonza). The adherent astrocytes were trypsinized by 0.25% trypsin-EDTA, then collected and sub-cultured in 12-well plate (1.2 ml/well). […] Vehicle groups were pretreated with 0.1% DMSO only. Following addition of LPS, incubation continued for 24 hours. Culture medium was used as the blank and the levels of cytokines, TNF-α, IL-6 and IL-1β in 200 μl of culture medium were determined. Each well was sampled twice.
# (§3) Plates were washed 3 times with ice-cold 50 mM Tris HCl (pH 7.4) and incubated at 30° C. with 200 μl medium derived from the above mentioned conditions. Plates were washed 3 times with ice-cold 50 mM Tris HCl (pH 7.4) and incubated at 30° C. with 0.5 μg/well un-conjugated rabbit anti-anti-INF-α, -IL-6 and -IL-1β for 1 hour. After two 1 minute washes with 50 mM Tris HCl (pH 7.4), each well was incubated in 0.5 μg/well FITC-conjugated anti-rabbit IgG (human and mouse absorbed) for 1 hour at 30° C. Plates were washed twice with 200 μl ice-cold Tris HCl, pH 7.4 and the residual […] signals were determined by multimode plate reader, DTX880 (Beckman).
# [4] = Mouse hot-water tail-flick test; assay type: in vivo; settings: orally administered
# Description: The mouse “tail flick” test was used to assay the relative antinociceptive activity of compositions containing a compound to be assayed. This assay was substantially that disclosed by Xie et al., 2005 J. Neurosci 25:409-416.
# The mouse hot-water tail-flick test was performed by placing the distal third of the tail in a water bath maintained at 52° C. The latency until tail withdrawal from the bath was determined and compared among the treatments. A 10 second cutoff was used to avoid tissue damage. Data are converted to percentage of antinociception by the following formula: (response latency−baseline latency)/(cutoff−baseline latency)×100 to generate dose-response curves. […] Relative potency was determined as a ratio of the A50 values.
# To assess tolerance to the antinociceptive effect, the compound was administered twice daily for 7 days at an A90 dose (dose that results in a 90% antinociceptive effect in the 52° C. warm-water tail-flick test), and the tail-flick test was performed daily after the a.m. dose. […] Assays were typically carried out separately using at least 32 and 56 mg/kg dosages, with some assays also separately carried out at 18 and 100 mg/kg.
# [5] = tested on: IL-1β release from primary human astrocytes; test: LPS-induced cytokine release from primary human astrocytes, IL-1β; assay type: cell-based
# Description: as §1, §2, §3
# [6] = tested on: IL-6 release from primary human astrocytes; test: LPS-induced cytokine release from primary human astrocytes, IL-6; assay type: cell-based
# Description: as §1, §2, §3
# [7] = target: filamin A (Homo sapiens, UniProt P21333); settings: read-out: affinity of binding to filamin A; cited from earlier work
# [8] = 0.1 μM compound, striatal membranes
# [9] = 1 μM compound + BFNA (1 μM β-funaltrexamine)
# [10] = 1 μM compound, striatal membranes
# [11] = 10 pM compound 2 hours prior to LPS (1 μg/ml) and continued 24 hours
# [12] = 1 nM compound 2 hours prior to LPS (1 μg/ml) and continued 24 hours
# [13] = 100 nM compound 2 hours prior to LPS (1 μg/ml) and continued 24 hours
# [14] = 100 fM compound 2 hours prior to LPS (1 μg/ml) and continued 24 hours
# T1 sequence (P33535 whole entry): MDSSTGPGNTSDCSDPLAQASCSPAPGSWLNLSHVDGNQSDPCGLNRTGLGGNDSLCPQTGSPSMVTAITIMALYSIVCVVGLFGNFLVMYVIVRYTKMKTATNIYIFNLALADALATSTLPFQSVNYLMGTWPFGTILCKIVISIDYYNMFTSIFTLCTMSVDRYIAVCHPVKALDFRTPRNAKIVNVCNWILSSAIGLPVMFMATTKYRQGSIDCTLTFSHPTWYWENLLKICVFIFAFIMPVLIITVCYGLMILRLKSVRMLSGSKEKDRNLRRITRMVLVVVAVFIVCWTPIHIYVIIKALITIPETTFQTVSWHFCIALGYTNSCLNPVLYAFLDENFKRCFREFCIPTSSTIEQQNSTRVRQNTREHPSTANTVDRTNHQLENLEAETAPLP
# Chain of filamin A (P21333 whole entry): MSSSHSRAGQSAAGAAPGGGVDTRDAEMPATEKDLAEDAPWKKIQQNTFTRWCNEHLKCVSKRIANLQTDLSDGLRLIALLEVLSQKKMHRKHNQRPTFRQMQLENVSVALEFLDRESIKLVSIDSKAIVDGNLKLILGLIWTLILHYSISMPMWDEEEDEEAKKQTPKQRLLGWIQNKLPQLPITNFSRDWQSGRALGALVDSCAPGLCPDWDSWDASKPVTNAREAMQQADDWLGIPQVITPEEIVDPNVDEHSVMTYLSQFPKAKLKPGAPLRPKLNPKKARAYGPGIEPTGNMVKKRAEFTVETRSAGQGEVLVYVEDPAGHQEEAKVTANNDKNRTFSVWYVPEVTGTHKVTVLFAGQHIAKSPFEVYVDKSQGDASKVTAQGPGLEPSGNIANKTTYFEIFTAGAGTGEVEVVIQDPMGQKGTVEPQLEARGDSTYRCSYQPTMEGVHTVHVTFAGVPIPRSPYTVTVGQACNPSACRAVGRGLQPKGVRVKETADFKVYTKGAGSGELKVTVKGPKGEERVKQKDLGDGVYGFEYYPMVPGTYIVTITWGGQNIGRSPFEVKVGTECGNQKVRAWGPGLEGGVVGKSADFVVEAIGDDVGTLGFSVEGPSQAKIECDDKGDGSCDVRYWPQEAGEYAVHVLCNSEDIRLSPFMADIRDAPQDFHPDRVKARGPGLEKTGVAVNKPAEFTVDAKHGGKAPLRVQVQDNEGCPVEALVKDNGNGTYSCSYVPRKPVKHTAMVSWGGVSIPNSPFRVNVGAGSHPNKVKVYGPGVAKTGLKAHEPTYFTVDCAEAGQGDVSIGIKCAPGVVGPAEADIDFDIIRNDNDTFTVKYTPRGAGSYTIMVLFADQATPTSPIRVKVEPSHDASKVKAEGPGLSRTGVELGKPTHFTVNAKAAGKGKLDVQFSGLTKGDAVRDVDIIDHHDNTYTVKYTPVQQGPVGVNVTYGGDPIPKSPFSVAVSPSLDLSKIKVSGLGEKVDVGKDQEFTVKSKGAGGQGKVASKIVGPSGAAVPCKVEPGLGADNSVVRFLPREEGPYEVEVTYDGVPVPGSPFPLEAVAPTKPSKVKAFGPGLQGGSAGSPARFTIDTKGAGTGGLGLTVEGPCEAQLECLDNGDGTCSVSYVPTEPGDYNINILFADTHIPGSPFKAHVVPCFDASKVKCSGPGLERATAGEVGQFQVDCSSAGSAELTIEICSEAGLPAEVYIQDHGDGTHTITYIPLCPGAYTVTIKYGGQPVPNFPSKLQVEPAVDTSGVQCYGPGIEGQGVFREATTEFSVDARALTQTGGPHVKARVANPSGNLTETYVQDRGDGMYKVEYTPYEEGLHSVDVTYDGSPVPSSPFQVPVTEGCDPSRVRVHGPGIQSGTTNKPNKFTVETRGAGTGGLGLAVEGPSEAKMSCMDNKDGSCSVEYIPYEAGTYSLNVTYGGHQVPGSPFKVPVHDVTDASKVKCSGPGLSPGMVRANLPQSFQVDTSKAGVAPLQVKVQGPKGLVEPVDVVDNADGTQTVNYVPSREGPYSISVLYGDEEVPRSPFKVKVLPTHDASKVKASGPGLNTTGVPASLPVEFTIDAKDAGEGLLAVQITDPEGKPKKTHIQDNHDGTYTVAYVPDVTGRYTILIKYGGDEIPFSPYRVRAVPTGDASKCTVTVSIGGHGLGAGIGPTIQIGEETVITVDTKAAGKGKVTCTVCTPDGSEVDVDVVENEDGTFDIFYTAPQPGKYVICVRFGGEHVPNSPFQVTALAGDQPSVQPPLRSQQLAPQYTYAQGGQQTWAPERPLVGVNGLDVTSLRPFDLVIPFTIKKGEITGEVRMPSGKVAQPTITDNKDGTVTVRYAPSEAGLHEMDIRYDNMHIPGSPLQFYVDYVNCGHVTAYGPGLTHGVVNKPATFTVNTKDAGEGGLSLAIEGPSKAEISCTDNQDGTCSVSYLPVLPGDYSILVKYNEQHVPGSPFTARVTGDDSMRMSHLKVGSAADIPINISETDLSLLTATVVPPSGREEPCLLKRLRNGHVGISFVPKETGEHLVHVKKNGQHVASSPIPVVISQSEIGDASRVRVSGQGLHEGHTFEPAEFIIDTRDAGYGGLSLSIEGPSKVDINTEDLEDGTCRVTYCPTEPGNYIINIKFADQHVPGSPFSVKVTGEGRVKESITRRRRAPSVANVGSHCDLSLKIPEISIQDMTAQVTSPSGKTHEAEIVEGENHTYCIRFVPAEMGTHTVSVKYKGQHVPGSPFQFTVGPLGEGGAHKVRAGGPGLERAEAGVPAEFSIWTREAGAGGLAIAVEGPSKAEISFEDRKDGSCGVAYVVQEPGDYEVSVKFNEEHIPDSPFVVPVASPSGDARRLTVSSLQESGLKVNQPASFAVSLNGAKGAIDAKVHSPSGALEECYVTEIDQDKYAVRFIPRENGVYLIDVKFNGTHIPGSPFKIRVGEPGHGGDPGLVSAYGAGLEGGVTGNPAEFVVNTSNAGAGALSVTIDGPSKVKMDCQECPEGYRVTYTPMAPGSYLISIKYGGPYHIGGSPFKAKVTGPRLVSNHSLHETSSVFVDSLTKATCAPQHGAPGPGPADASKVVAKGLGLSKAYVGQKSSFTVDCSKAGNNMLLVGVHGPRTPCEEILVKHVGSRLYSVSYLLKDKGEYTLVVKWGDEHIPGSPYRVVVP
SMILES,"MOR agonist activity, [35S]GTPγS binding to Gαo [2, 8] [%]","MOR agonist activity, [35S]GTPγS binding to Gαo [2, 9] [%]","MOR agonist activity, [35S]GTPγS binding to Gαo [2, 10] [%]","TNF-α Average % (±SEM) [3, 11]","TNF-α Average % (±SEM) [3, 12]","TNF-α Average % (±SEM) [3, 13]","TNF-α Average % (±SEM) [3, 14]",Maximum Antinociception (%) ([4]; 56 mg/kg),Time to Max. ([4]; 56 mg/kg) [min],"IL-1β Average % (±SEM) [5, 11]","IL-1β Average % (±SEM) [5, 12]","IL-1β Average % (±SEM) [5, 13]","IL-1β Average % (±SEM) [5, 14]","IL-6 Average % (±SEM) [6, 11]","IL-6 Average % (±SEM) [6, 12]","IL-6 Average % (±SEM) [6, 13]","IL-6 Average % (±SEM) [6, 14]",other results
O=[N+]([O-])c1ccc(S(=O)(=O)N2CCC3(CC2)NCCCO3)cc1 [Compound C0045],149.2,105.3,238.8,,,,,,,,,,,,,,,Percent inhibition of FITC-NLX binding ([1]; 0.01 μM compound): 39.1%; Percent inhibition of FITC-NLX binding ([1]; 0.1 μM compound): 48.9%; Percent inhibition of FITC-NLX binding ([1]; 1 μM compound): 53.7%; % DAMGO (0.1 μM) ([2]; 0.1 μM compound relative to DAMGO): 88.3%; % DAMGO + BFNA ([2]; 1 μM compound + BFNA relative to DAMGO + BFNA): 634.3%; % DAMGO (1 μM) ([2]; 1 μM compound relative to DAMGO): 109.1%
O=S(=O)(c1ccc(F)cc1)N1CCOC12CCN(CC1CC1)CC2 [F-C0134],,,,75.7 (1.8) %,77.4 (4.2) %,75.4 (1.6) %,77.0 (2.8) %,93,20,78.0 (5.5) %,77.7 (2.9) %,73.2 (3.9) %,73.3 (5.3) %,78.8 (1.5) %,78.2 (1.8) %,76.3 (2.8) %,81.3 (2.4) %,
"C=CCN1CC[C@]23c4c5ccc(O)c4O[C@H]2C(=O)CC[C@@]3(O)[C@H]1C5 [NLX, naloxone, reference compound]",,,,,,,,,,,,,,,,,,"inhibition at 0.01 µM ([1]; 0.01 μM compound, read-out: Percent inhibition of FITC-NLX binding): 40.6%; inhibition at 0.1 µM ([1]; 0.1 μM compound, read-out: Percent inhibition of FITC-NLX binding): 47.8%; inhibition at 1 µM ([1]; 1 μM compound, read-out: Percent inhibition of FITC-NLX binding): 51.5%; Kd [7]: ~4 pM"
COc1ccc(S(=O)(=O)N2CCSC23CCNCC3)cc1 [S-C0027],156.2,56.2,286.8,73.6 (3.8) %,72.7 (0.7) %,74.0 (1.7) %,77.7 (2.7) %,70,30,85.8 (1.3) %,81.9 (2.3) %,79.5 (2.4) %,86.8 (2.0) %,75.6 (1.5) %,77.4 (4.2) %,83.1 (2.1) %,81.0 (1.7) %,Maximum Antinociception (%) ([4]; 100 mg/kg): 90%; Time to Max. ([4]; 100 mg/kg): 30 min
"CN1CC[C@]23c4c5ccc(O)c4O[C@H]2[C@@H](O)C=C[C@H]3[C@H]1C5 [morphine, reference compound]",,,,,,,,43,20,,,,,,,,,
